Measured values published in US11066681B2, “Production of itaconic acid” (LESAFFRE ET COMPAGNIE, priority 2016, dated 2021).
“Also recorded” adds a separate entry of the source.

How the values were obtained:
[1] = tested on: Itaconyl CoA hydratase ATEG_03709; conditions: 40 g/l IA addition to culture medium; cited from earlier work
[2] = tested on: A. niger AB1.13 CAD 4.1 (CBS 141653) strain; test: Itaconic acid toxicity: shakeflask growth in M12+Cu with added IA, biomass dry weight; format: cell-based, Aspergillus niger
Experimental: FIG. 4: Growth of AB1.13 CAD 4.1 (CBS 141653) strain in M12+Cu supplemented with several concentrations of itaconic acid. Medium devoid of C-source is used as negative control. An extracellular concentration of 10 g/l IA in the production medium results in an 75% decrease in biomass development.
Shakeflasks (500 mL) were prepared with 100 mL M12+Cu supplemented with the following IA concentrations: 0, 10, 20, 40, 75 g/l and pH was adjusted to 2.3 by addition of KOH/H2SO4. The flasks were inoculated with 1 mL of overnight grown pre-culture. After 7 days the mycelium was harvested and the biomass was determined by measuring the dry weight. The effect of IA on the growth of A. niger was tested using the AB1.13 CAD 4.1 (CBS 141653) strain. As shown in FIG. 4 the growth of A. niger is already hampered at concentrations of 10 g/l IA in the extracellular medium.

[3] = tested on: trans-aconitate 2-methyltransferase (An16g06510); test: Gene expression analysis (RNA-Seq) in A. niger IA producing strains; format: cell-based, Aspergillus niger; conditions: IA producing A. niger strains in controlled fermentation
Experimental: Similarly, genome wide gene expression analysis of Aspergillus niger strains expressing a functional itaconic acid pathway grown in fermenters was carried out to identify genes co-regulated by the expression of the itaconic acid gene cluster. The following strains were investigated: AB1.13 WT, AB1.13 CAD 4.1 (CBS141653), AB1.13 #49B (CBS141657), CitB #99 (CBS141659), and CitB #113.
Controlled batch-cultivations were performed on 5 L scale benchtop New Brunswick Scientific fermenters (BioFlo 3000) at 33° C. Starting pH was 3.5 after inoculation and medium was allowed to naturally acidify till pH 2.3 and then kept at pH 2.3 by addition of 4M KOH. […]
BaseClear in Leiden, NL performed digital gene expression profiling experiments based on RNA-Seq with an Illumina HiSeq 2000 System. Approximately 8-32 M unfiltered paired-end (PE) reads (99 bp/read on ˜320 bp cDNA inserts) were obtained. […] The reads were then further filtered, such that all quality phred scores after filtering are at least 22, with a read-length of at least 40 bases. […] After filtering the #PE-reads/samples were between 7.6M and 19.8M for all the samples respectively.
Reads were aligned to the 20 contigs in a FastA file of the Aspergillus niger reference genome (from www.ebi.ac.uk). […] The reads were aligned to the reference genome using software based on a Burrows-Wheeler Transform (BWT) algorithm. […]

[4] = tested on: Trans-aconitate 2-methyltransferase ATEG_04223; conditions: 40 g/l IA addition to culture medium; cited from earlier work
[5] = tested on: Trans-aconitate 3-methyltransferase (tmt-1) ATEG_06208; conditions: 40 g/l IA addition to culture medium; cited from earlier work
[6] = tested on: Citramalyl-CoA lyase ATEG_03186; conditions: 40 g/l IA addition to culture medium; cited from earlier work
[7] = tested on: Itaconyl CoA transferase ATEG_06299; conditions: 40 g/l IA addition to culture medium; cited from earlier work

In the case of `C=C(CC(=O)O)C(=O)O` [IA, itaconic acid], the Induced [1] is listed as “induced”, the “induced expression level (RKPM)” value [1] is listed as 320 RKPM and the x-fold [1] is listed as 2.3 x-fold. For the same compound, the “growth of A. niger” value ([2]; 10 g/l IA in the extracellular medium, M12+Cu, 7 days) was “hampered”, the “growth at higher IA concentrations” value ([2]; 20 g/l IA and higher (20, 40 and 75 g/l), M12+Cu, 7 days, 33° C.) was “detrimental effects of IA on growth become more evident; also recorded: further deteriorated growth” and the “decrease in biomass development” value ([2]; extracellular 10 g/l IA in production medium M12+Cu, pH 2.3, 7 days, 33° C.) was 75%. The “gene expression, effect of itaconic acid” value [3] was “induced”, the Induced [4] was “not induced” and the “induced expression level (RKPM)” value [4] was “<(25) RKPM”. The Induced [5] was “not induced”, the “induced expression level (RKPM)” value [5] was “<(4) RKPM” and the Induced [6] was “induced”. For the same compound, the “induced expression level (RKPM)” value [6] was 150 RKPM, the x-fold [6] was 5.4 x-fold and the Induced [7] was “induced”. For the same compound, the “induced expression level (RKPM)” value [7] was 130 RKPM and the x-fold [7] was 8.2 x-fold.
